ChEMBL document CHEMBL5352416, “Benzo[b]thiophene-2-carboxamides as novel opioid receptor agonists with potent analgesic effect and reduced constipation” (Eur J Med Chem, 2022)
Values belong to the compound of their own block, whether it stands above or below them. The source made the active and inactive calls. No cut-off for these calls is given here.

Columns and labels:
[1] = molecular target: T1, Mu-type opioid receptor (Homo sapiens, UniProt P35372); test: Agonist activity at human mu opioid receptor expressed in CHO-K1 cells coexpressing Galpha15 assessed as increase in fluorescence of [ca2+]i measured for 1.52 sec by FLIPR calcium assay; format: functional, cell-based
T1 sequence (P35372 whole entry): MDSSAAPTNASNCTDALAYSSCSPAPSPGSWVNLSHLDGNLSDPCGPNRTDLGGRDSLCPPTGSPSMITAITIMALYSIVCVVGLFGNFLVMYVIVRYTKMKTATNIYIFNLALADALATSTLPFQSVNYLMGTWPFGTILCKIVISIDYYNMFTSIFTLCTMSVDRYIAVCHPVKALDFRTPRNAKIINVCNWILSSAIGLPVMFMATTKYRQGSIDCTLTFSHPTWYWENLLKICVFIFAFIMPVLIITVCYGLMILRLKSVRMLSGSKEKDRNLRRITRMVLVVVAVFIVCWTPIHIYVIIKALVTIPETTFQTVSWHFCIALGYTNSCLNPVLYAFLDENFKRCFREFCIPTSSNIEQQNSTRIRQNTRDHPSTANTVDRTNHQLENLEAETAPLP

[2] = molecular target: T1, Mu-type opioid receptor; test: Agonist activity at human mu opioid receptor expressed in CHO-K1 cells coexpressing Galpha15 assessed as increase in fluorescence of [ca2+]i by measuring maximum efficacy measured for 1.52 sec by FLIPR calcium assay relative to control; format: functional, cell-based
[3] = test system: Mus musculus; test: Antinociceptive activity in thermal stimulated wild type C57BL/6 mouse assessed as tail flick latency at 126.4 to 252.8 microg/kg measured at 30 to 60 mins by tail flick test; format: functional, organism-based; conditions: dose 126.4-252.8 µg/kg, time 30-60 min
[4] = molecular target: T1, Mu-type opioid receptor; test: Displacement of [3H]-Diprenorphine from human MOR receptor expressed in CHO-K1 cells assessed as inhibition constant measured for 1 hr by liquid scintillation counter analysis; format: cell-based
[5] = molecular target: T2, Delta-type opioid receptor (Homo sapiens, UniProt P41143); test: Displacement of [3H]-Diprenorphine from human DOR receptor expressed in CHO-K1 cells assessed as inhibition constant measured for 1 hr by liquid scintillation counter analysis; format: cell-based
T2 sequence (P41143 whole entry): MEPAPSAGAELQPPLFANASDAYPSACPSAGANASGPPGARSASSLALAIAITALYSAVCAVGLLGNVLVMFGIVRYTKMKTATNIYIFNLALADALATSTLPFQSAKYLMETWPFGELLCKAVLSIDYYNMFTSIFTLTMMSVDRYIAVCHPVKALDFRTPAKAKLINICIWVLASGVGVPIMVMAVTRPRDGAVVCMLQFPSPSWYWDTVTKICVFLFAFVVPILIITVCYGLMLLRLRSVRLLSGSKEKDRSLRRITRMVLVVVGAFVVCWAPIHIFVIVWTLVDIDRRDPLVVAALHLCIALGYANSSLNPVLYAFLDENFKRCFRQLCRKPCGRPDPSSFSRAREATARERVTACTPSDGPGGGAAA

[6] = molecular target: T3, Nociceptin receptor (Homo sapiens, UniProt P41146); test: Displacement of [3H]-Nociceptin from human NOP receptor expressed in CHO-K1 cells assessed as inhibition constant measured for 1 hr by liquid scintillation counter analysis; format: cell-based
T3 sequence (P41146 whole entry): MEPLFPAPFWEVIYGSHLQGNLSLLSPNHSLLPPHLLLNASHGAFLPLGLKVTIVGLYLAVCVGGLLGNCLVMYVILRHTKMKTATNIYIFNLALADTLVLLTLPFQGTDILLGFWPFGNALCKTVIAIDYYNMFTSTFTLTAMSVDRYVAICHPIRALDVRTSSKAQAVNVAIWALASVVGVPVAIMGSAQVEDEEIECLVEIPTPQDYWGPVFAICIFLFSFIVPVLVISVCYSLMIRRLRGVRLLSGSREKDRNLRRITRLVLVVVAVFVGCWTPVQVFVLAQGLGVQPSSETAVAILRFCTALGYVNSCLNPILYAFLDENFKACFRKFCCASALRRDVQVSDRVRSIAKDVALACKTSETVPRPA

[7] = molecular target: T1, Mu-type opioid receptor; test: Agonist activity at human mu opioid receptor expressed in CHO-K1 cells assessed as decrease in intracellular cAMP level measured after 1 hr by LANCE ultra cAMP assay; format: functional, cell-based
[8] = molecular target: T3, Nociceptin receptor; test: Agonist activity at human NOP receptor expressed in CHO-K1 cells assessed as decrease in intracellular cAMP level measured after 1 hr by LANCE ultra cAMP assay; format: functional, cell-based
[9] = molecular target: T2, Delta-type opioid receptor; test: Agonist activity at human DOR receptor expressed in CHO-K1 cells assessed as decrease in intracellular cAMP level measured after 1 hr by LANCE ultra cAMP assay; format: functional, cell-based
[10] = molecular target: T1, Mu-type opioid receptor; test: Agonist activity at human mu opioid receptor expressed in CHO-K1 cells assessed as […] beta-arrestin 2 recruitment measured after 1.5 hrs by PathHunter assay; format: functional, cell-based
[11] = molecular target: T3, Nociceptin receptor; test: Agonist activity at human NOP receptor expressed in CHO-K1 cells assessed as […] beta-arrestin 2 recruitment measured after 1.5 hrs by PathHunter assay; format: functional, cell-based
[12] = molecular target: T2, Delta-type opioid receptor; test: Agonist activity at human DOR receptor expressed in CHO-K1 cells assessed as […] beta-arrestin 2 recruitment measured after 1.5 hrs by PathHunter assay; format: functional, cell-based
[13] = molecular target: T3, Nociceptin receptor; test: Potency index, ratio of Nociceptin EC50 to test compound EC50 for agonist activity at human NOP receptor expressed in CHO-K1 cells assessed as […] beta-arrestin 2 recruitment measured after 1.5 hrs by PathHunter assay; format: functional, cell-based
[14] = molecular target: T2, Delta-type opioid receptor; test: Potency index, ratio of DADLE EC50 to test compound EC50 for agonist activity at human DOR receptor expressed in CHO-K1 cells assessed as […] beta-arrestin 2 recruitment measured after 1.5 hrs by PathHunter assay; format: functional, cell-based
[15] = molecular target: T1, Mu-type opioid receptor; test: Agonist activity at human mu opioid receptor expressed in CHO-K1 cells assessed as decrease in intracellular cAMP level at 0.5 uM in presence of naltrexone; format: functional, cell-based; conditions: filed as agonist
[16] = molecular target: T3, Nociceptin receptor; test: Agonist activity at human NOP receptor expressed in CHO-K1 cells assessed as decrease in intracellular cAMP level at 0.5 uM in presence of BAN ORL 24; format: functional, cell-based
[17] = molecular target: T2, Delta-type opioid receptor; test: Agonist activity at human DOR receptor expressed in CHO-K1 cells assessed as decrease in intracellular cAMP level at 0.5 uM in presence of naltrindole; format: functional, cell-based
[18] = Drug concentration in C57BL/6 mouse plasma at 2 mg/kg, sc measured for 5 min by ICP-MS analysis; format: ADME, organism-based
[19] = Drug concentration in C57BL/6 mouse plasma at 2 mg/kg, sc measured for 60 min by ICP-MS analysis; format: ADME, organism-based
[20] = Drug concentration in C57BL/6 mouse brain at 2 mg/kg, sc measured for 5 min by ICP-MS analysis; format: ADME, organism-based; conditions: read-out: Ct
[21] = Drug concentration in C57BL/6 mouse brain at 2 mg/kg, sc measured for 60 min by ICP-MS analysis; format: ADME, organism-based; conditions: read-out: Ct
[22] = Drug concentration in C57BL/6 mouse Intestine at 2 mg/kg, sc measured for 5 min by ICP-MS analysis; format: ADME, organism-based; conditions: read-out: Ct
[23] = Drug concentration in C57BL/6 mouse Intestine at 2 mg/kg, sc measured for 60 min by ICP-MS analysis; format: ADME, organism-based; conditions: read-out: Ct
[24] = test system: Mus musculus; test: Antinociceptive activity in thermal stimulated sc dosed C57BL/6 mouse measured at 30 to 180 mins by tail flick test; format: functional; conditions: time 30-180 min
[25] = test system: Mus musculus; test: Antinociceptive activity in thermal stimulated C57BL/6 mouse at 126.4 to 252.8 microg/kg, sc measured at 30 to 180 mins by tail flick test; format: functional, organism-based; conditions: dose 126.4-252.8 µg/kg, time 30-180 min
[26] = test system: Mus musculus; test: Antinociceptive activity in thermal stimulated C57BL/6 mouse assessed as tail flick latency at 126.4 to 252.8 microg/kg, sc measured at 30 to 60 mins by tail flick test; format: functional, organism-based; conditions: dose 126.4-252.8 µg/kg, time 30-60 min
[27] = test system: Mus musculus; test: Antinociceptive activity in thermal stimulated MOR-knockout C57BL/6 mouse assessed as delay in flick tail at 252.8 microg/kg, sc measured after 30 mins by tail flick test; format: functional, organism-based; conditions: dose 252.8 µg/kg
[28] = test system: Mus musculus; test: Antinociceptive activity in CFA-induced mechanical allodynia C57BL/6 mouse model at 126.4 to 252.8 microg/kg, sc pretreated with CFA for 2 days followed by compound addition and measured after 1 day by von frey test; format: functional, organism-based; conditions: dose 126.4-252.8 µg/kg
[29] = test system: Mus musculus; test: Antinociceptive activity in CFA-induced mechanical allodynia MOR knockout C57BL/6 mouse model at 252.8 microg/kg, sc administered twice daily pretreated with CFA for 2 days followed by compound addition and measured at 3 to 7 days by von frey test; format: functional, organism-based; conditions: dose 252.8 µg/kg, time 3-7 day
[30] = test system: Mus musculus; test: Antinociceptive activity in thermal stimulated C57BL/6 mouse assessed as drug tolerance at 126.4 to 252.8 microg/kg, sc administered twice per day for 5 days and measured immediately by tail flick test; format: functional, organism-based; conditions: dose 126.4-252.8 µg/kg, time 5.0 day
[31] = test system: Mus musculus; test: Antinociceptive activity in C57BL/6 mouse at 252.8 microg/kg, sc measured after 5 days in presence of BAN ORL 24 by tail flick test; format: functional, organism-based; conditions: dose 252.8 µg/kg, time 5.0 day
[32] = test system: Mus musculus; test: Antinociceptive activity in C57BL/6 mouse at 252.8 microg/kg, sc measured after 5 days in presence of naltrindole by tail flick test; format: functional, organism-based; conditions: dose 252.8 µg/kg, time 5.0 day
[33] = test system: Mus musculus; test: Antinociceptive activity in C57BL/6 mouse assessed as drug tolerance at 252.8 microg/kg, sc administered twice per day for 6 days and measured immediately by tail flick test; format: functional, organism-based; conditions: dose 252.8 µg/kg, time 6.0 day
[34] = test system: Mus musculus; test: Antinociceptive activity in morphine tolerant C57BL/6 mouse at 252.8 microg/kg, sc administered twice per day for 6 days and measured after 30 min by tail flick test; format: functional, organism-based; conditions: dose 252.8 µg/kg
[35] = test system: Mus musculus; test: Induction of motivational effect in C57BL/6 mouse assessed as increase in reward behaviour at 126.4 to 252.8 microg/kg, sc administered for 4 days and measured on day 6 by CPP analysis; format: functional, organism-based; conditions: dose 126.4-252.8 µg/kg, time 6.0 day

Compound: Cc1cccc(C(CNC(=O)c2cc3ccccc3s2)N(C)C)c1 (stereo unspecified)
EC50 [1]: 4110 nM
Emax ([2]; filed as agonist): 116%

Compound: CN(C)C(CNC(=O)c1cc2ccccc2s1)c1ccccc1F (stereo unspecified)
EC50 [1]: 1240 nM
Emax ([2]; filed as agonist): 105%

Compound: Cc1ccc(C(CNC(=O)c2cc3ccccc3s2)N(C)C)cc1 (stereo unspecified)
Activity [3]: Active
EC50 [1]: 8170 nM
Emax ([2]; filed as agonist): 114%
Ki [4]: 0.3 nM
Ki [5]: > 1 nM
Ki [6]: 650 nM
EC50 [7]: 0.23 nM
EC50 [8]: 22 nM
EC50 [9]: 2.13 nM
EC50 [10]: 30 nM
EC50 [11]: 44.8 µM
EC50 [12]: > 10 µM
Ratio EC50 [13]: 2200
Ratio EC50 [14]: 233
Activity [15]: Active
Activity [16]: inactive
Activity [17]: inactive
concentration at 5 min [18]: 191 ng/mL
concentration at 1 h [19]: 252 ng/mL
concentration at 5 min [20]: 1110 ng/mL
concentration at 1 h [21]: 2030 ng/mL
concentration at 5 min [22]: 515 ng/mL
concentration at 1 h [23]: 936 ng/mL
Activity [24]: Dose-Dependent Effect
ED50 [24]: 127 mg/kg
Activity [25]: Active
Activity [26]: Active
Activity [27]: Active
Activity [28]: Active
Activity [29]: Active
Activity [30]: Active
Activity [31]: Active
Activity [32]: Active
Activity [33]: Active
Activity [34]: Active
Activity [35]: Active

Compound: CN(C)C(CNC(=O)c1sc2ccccc2c1Cl)c1ccccc1Cl (stereo unspecified)
EC50 [1]: 360 nM
Emax ([2]; filed as agonist): 93.8%

Compound: CN1CCc2ccccc2C1CNC(=O)c1ccc(Cl)c(Cl)c1 (stereo unspecified)
EC50 [1]: 0.276 nM
Emax ([2]; filed as agonist): 100%

Compound: CN(C)C(CNC(=O)c1cc2ccccc2s1)c1cccs1 (stereo unspecified)
EC50 [1]: 13.6 nM
Emax ([2]; filed as agonist): 131%

Next, values leading:

EC50 [1]: 6.4 nM
Emax ([2]; filed as agonist): 117%
Compound: CN(C)C(CNC(=O)c1cc2ccccc2s1)c1ccc(F)cc1 (stereo unspecified)

EC50 [1]: 1620 nM
Emax ([2]; filed as agonist): 73.6%
Compound: Cc1ccc2c(Cl)c(C(=O)NCC(c3ccccc3)N(C)C)sc2c1 (stereo unspecified)

EC50 [1]: 2580 nM
Emax ([2]; filed as agonist): 55%
Compound: Cc1ccc2c(Cl)c(C(=O)NCC(c3ccccc3Cl)N(C)C)sc2c1 (stereo unspecified)

EC50 [1]: > 10000 nM
Emax [2]: < 20%
Compound: Cc1ccc2c(Cl)c(C(=O)NCCc3ccccc3Cl)sc2c1

EC50 [1]: 400 nM
Emax ([2]; filed as agonist): 54.5%
Compound: CN(C)C(CNC(=O)c1cccs1)c1ccccc1Cl (stereo unspecified)
